{"source": "patent US20120301551A1", "about": "“COMPOUNDS AND COMPOSITIONS FOR TREATING NEURONAL DEATH OR NEUROLOGICAL DYSFUNCTION” (Neurotech Pharmaceuticals Co., Ltd., priority 2005, published 2012)", "key": {"[1]": {"system": "TNF-α", "test": "LPS-induced TNF-α production in BV2 cells", "type": "cell-based", "details": "100 uM; 1 ug/ml LPS, 4 hours", "description": "(§1) Suppressing effects of chemical 01 in BV2 cell lines on production of IL-1β, IL-6 or TNF-α were evaluated. BV2 cells were exposed to 1 ug/ml LPS (inflammation-inducing material) with inclusion of chemical 01 at indicated doses. After 4 hours, supernatant were collected and concentrations of TNF-a were evaluated. In addition, BV2 cells were treated by the same method, and 24 hours later, supernatant were collected and concentrations of IL-1β and IL-6 were evaluated (mean±SEM, n=3). BV2 cells treated with LPS only were used as control."}, "[2]": {"system": "Tg2576 transgenic mice", "test": "elevated plus maze in Tg2576 transgenic mice", "type": "in vivo, mouse", "details": "25 mg/kg/day for 5 months (9~14 months)", "description": "14 month-old Tg2576 transgenic mice were fed chow alone, or containing 25 mg/kg/day of chemical 01, for 5 months (9˜14 months). After administration of 5 months, Elevated plus maze test was performed to evaluate the behavior improvement. Elevated plus maze has two open arms (30 cm×6 cm×0.5 cm) and two closed arms (30 cm×6 cm×15 cm), and also has 6 cm×6 cm of center platform. In Elevated plus maze test, mouse was carefully laid in the center with the head of the mouse toward open arm. The time that the mouse spent in the open arm was recorded for 5 minutes (mean±SEM, n=2).\n(§2) 14 month-old Tg2576 transgenic mice were fed chow alone (saline only), or containing 25 mg/kg/day of chemical—01, for 5 months (9˜14 month).\nThe anxiety function was analyzed by elevated plus maze test. The time spent in the open arm was recorded in the elevated plus maze."}, "[3]": {"system": "APPswe/PS1deltaE9 double transgenic mice", "test": "open field activity in APPswe/PS1deltaE9 double transgenic mice", "type": "in vivo, mouse", "details": "25 mg/kg/day chemical 01 or 62.5 mg/kg/day ibuprofen for 14.5 months (3~17.5 months)", "description": "After administration of drug for 14.5 months, Open field activity test was performed to evaluate locomotor activity and exploratory behavior. 4×4 of scale marks were drawn in white acryl box having a size of 60 cm×60 cm×35 cm (width×length×height) to make sixteen squares. Four squares in the center became center zone and twelve squares around the center zone became peripary zone. Mice were laid into transparent acryl tube (diameter: about 3.5 inches) laid at the left corner of the acryl box for 30 seconds. After 30 seconds, acryl tube was removed to make mouse free. Experiment was once performed for each mouse for 5 minutes. The distance traveled in the open field was recorded (mean±SEM, n=3-5).\n(§3) 17.5 month-old APPswe/PS1deltaE9 double transgenic mice were fed chow alone (saline only), or containing 25 mg/kg/day of chemical—01, for […] (3˜17.5 month).\nOpen field activity was used to evaluate locomotor activity and exploratory behavior. The distance traveled in the open field was recorded and performance was analyzed after the testing took place."}, "[4]": {"system": "Tg2576 transgenic mice", "test": "Morris water maze in Tg2576 transgenic mice", "type": "in vivo, mouse", "details": "25 mg/kg/day for 5 months (9~14 months)", "description": "14 month-old Tg2576 transgenic mice were fed chow alone, or containing 25 mg/kg/day of chemical 01, for 5 months (9˜14 months). After administration of 5 months, the cognitive function was analyzed by Morris water maze test. Training was performed 4 times a day (4 trials/day) for 5 days. If mouse stay on the platform for over 10 seconds, it is thought to be a success. After 5 days of experiments, the latency to find the platform was recorded and analyzed for each mouse (mean±SEM, n=2).\nas §2\n(§4) The cognitive function was analyzed by Morris water maze test. Mice ware trained to perform a hidden platform task in the Morris water maze. The latency to find the platform was recorded for each mouse."}, "[5]": {"system": "cerebral cortical cell cultures", "test": "nerve cell death by MPP+ in cerebral cortical cell cultures (LDH)", "type": "cell-based", "details": "50 uM MPP+", "description": "Cerebral cortical cell cultures (DIV 13˜15) were continuously exposed to 50 uM MPP+ alone or with inclusion of 0.03-3 uM of chemical 01. After 24 hours, activity of LDH released outside cell was evaluated to quantify death of nerve cell (mean±SEM, n=4 culture well/each group)."}, "[6]": {"system": "IL-6", "test": "LPS-induced IL-6 production in BV2 cells", "type": "cell-based", "description": "as §1"}, "[7]": {"test": "hydroxyl radical scavenging in test tube", "type": "biochemical", "description": "In addition, scavenging effects of superoxide and hydroxyl radical in test tube were evaluated. Hydroxyl radical scavenging activities of 0.1 uM, 1 uM and 10 uM of chemical 01 were 13.35%, 33.33% and 71.72%, respectively."}, "[8]": {"system": "Tg2576 transgenic mice", "test": "amyloid plaque burden in Tg2576 transgenic mice (Thioflavin-S)", "type": "in vivo, mouse", "description": "[…] 18˜20 um brain cryo-sections were stained with 1% Thioflavin-S for 5 minutes and observed under fluorescence microscope system. Amyloid plaque burden/brain was quantified with MetaVue Image software (mean±SEM, n=2).\n[…] 18˜20 μm brain sections stained 1% Thioflavin-S for 5 min and observed under fluorescence microscope system."}, "[9]": {"system": "APPswe/PS1deltaE9 double transgenic mice", "test": "Morris water maze in APPswe/PS1deltaE9 double transgenic mice", "type": "in vivo, mouse", "details": "25 mg/kg/day chemical 01 or 62.5 mg/kg/day ibuprofen for 14.5 months (3~17.5 months)", "description": "After administration of 14.5 months, the cognitive function was analyzed by Morris water maze test like example 10-3-1 (mean±SEM, n=3-5).\nas §3, §4"}, "[10]": {"system": "gastric mucous membrane", "test": "gastric mucous membrane damage after oral administration", "type": "in vivo", "details": "1,000 mg/kg orally administered", "description": "FIG. 10 is results showing degrees of the gastric mucous membrane damage. Test samples were orally administered in a different dose. […] Aspirin was used as control.\nConventional NSAIDs have side effects causing damages to the gastric mucous membrane. Therefore, it was evaluated whether chemical 01 having anti-inflammatory effect causes the gastric damage or not. 30, 100 or 300 mg/kg of aspirin was orally administered as control."}}}
{"smiles": "O=C(O)c1cc(NCCc2ccc(C(F)(F)F)cc2)ccc1O", "note": "[chemical 01, 2-Hydroxy-5-[2-(4-trifluoromethyl-phenyl)-ethylamino]-benzoic acid]", "values": [{"measurement": "decrease of TNF-α released into media", "setting": "[1]", "result": "~70", "unit": "%"}, {"measurement": "time spent in the open arm", "setting": "[2]", "result": "decreased the time"}, {"measurement": "time spent in the open arm", "setting": "[2]; listed as chemical—01", "result": "spent less time"}, {"measurement": "open field activity (distance traveled)", "setting": "[3]", "result": "reduced significantly"}, {"measurement": "escape latency (latency to find the platform)", "setting": "[4]", "result": "shorter"}, {"measurement": "IC50", "setting": "[5]; 24 hours, LDH, read-out: IC50, nerve cell death caused by MPP+", "result": 57, "unit": "nM"}, {"measurement": "nerve cell death caused by MPP+, in words", "setting": "[5]; 0.03-3 uM", "result": "dose-dependent manner"}, {"measurement": "decrease of IL-6 released into media", "setting": "[6]; 100 uM, 1 ug/ml LPS, 24 hours", "result": "~70", "unit": "%"}, {"measurement": "IL-6 decrease, in words", "setting": "[6]; 1~100 uM", "result": "dose-dependent manner"}, {"measurement": "IC50", "setting": "[7]", "result": 970, "unit": "nM"}, {"measurement": "hydroxyl radical scavenging activity", "setting": "[7]; 0.1 uM", "result": 13.35, "unit": "%"}, {"measurement": "hydroxyl radical scavenging activity", "setting": "[7]; 1 uM", "result": 33.33, "unit": "%"}, {"measurement": "hydroxyl radical scavenging activity", "setting": "[7]; 10 uM", "result": 71.72, "unit": "%"}, {"measurement": "amyloid plaque burden, in words", "setting": "[8]; 25 mg/kg/d for 8 months (9~17 month)", "result": "reduced significantly"}, {"measurement": "reduction of amyloid plaque burden compared to control", "setting": "[8]; 25 mg/kg/day in chow for 8 months (9~17 months)", "result": 39.2, "unit": "%"}, {"measurement": "reduction in plaque burden", "setting": "[8]; 100 mg/kg/day for 6 months (from 6 to 12 months)", "result": 62, "unit": "%"}, {"measurement": "escape latency / cognitive function (Morris water maze)", "setting": "[9]", "result": "shorter"}, {"measurement": "gastric side effect (damage of the gastric mucous membrane)", "setting": "[10]", "result": "did not cause damage of the gastric mucous membrane"}, {"measurement": "gastric side effect (damage of the gastric mucous membrane)", "setting": "[10]; listed as Chemical 01", "result": "did not cause the gastric side effect"}]}
